Measurements from US5880121A, “4,5-dihydronaphth (1,2-c) isoxazoles and derivatives thereof” (Hoechst Marion Roussel Inc., priority 1996, dated 1999).

Assays:
5-HT3 Receptor = target: T1, 5-HT3 Receptor (Rattus norvegicus, UniProt P35563); test: ^3 H-GR 65630 Binding to Rat Entorhinal Cortex Membranes (affinity for 5-HT3 receptor); set-up: species or system Male Wistar rat; settings: 0.4 nM [^3 H]-GR65630, pH 7.4, 30 minutes at 37° C., read-out: IC50, Affinity for 5-HT3 Receptor-Displacement of ^3 H-GR 65630
T1 construct: Male Wistar rats (15-200 g) were decapitated, the entorhinal cortex removed, weighed and homogenized; from tissue; host or cells: entorhinal cortex membranes of male Wistar rats
T1 sequence (P35563 24-483): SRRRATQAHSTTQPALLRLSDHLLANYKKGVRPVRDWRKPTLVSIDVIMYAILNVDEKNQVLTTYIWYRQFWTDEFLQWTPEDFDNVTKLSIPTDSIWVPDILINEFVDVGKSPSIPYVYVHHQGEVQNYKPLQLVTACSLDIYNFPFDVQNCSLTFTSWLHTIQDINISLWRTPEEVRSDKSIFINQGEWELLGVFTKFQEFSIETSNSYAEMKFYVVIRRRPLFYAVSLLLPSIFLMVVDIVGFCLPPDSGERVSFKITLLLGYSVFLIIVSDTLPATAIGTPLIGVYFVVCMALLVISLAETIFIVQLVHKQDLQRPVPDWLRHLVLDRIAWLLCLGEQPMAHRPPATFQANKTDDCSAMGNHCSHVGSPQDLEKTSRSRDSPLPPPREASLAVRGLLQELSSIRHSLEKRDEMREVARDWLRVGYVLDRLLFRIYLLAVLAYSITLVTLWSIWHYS
Protocol: In accordance with the above-discussed assay, a 0.05M of Krebs-Hepes buffer, pH 7.4 was prepared as follows:
q.s. to 1 liter with distilled H2 O, bring pH up to 7.4 (at 4° C.) with 5N NaOH
[^3 H]-GR65630 (87.0 Ci/mmol) was obtained from New England Nuclear.
GR38032F was obtained from Research Biochemical Inc. GR38032F was made up to a concentration of 500 μM in Krebs-Hepes buffer. 50 μl of […] were added to each of 3 tubes for determination of nonspecific binding (yields a final concentration of 100 μM in the 250 μl assay).
For most assays, a 50 μM stock solution was prepared in a suitable solvent and serially diluted with Krebs-Hepes buffer such that when 50 μl of drug is combined with the total 250 μl assay, a final concentration from 10^-5 to 10^-8 M was attained.
During tissue preparation, Male Wistar rats ([…]) were decapitated, the entorhinal cortex removed, weighed and homogenized in 10 volumes of ice cold 0.05M Krebs-Hepes buffer, pH 7.4. The homogenate is centrifuged at 48,000 g for 15 minutes at 4° C. The resulting pellet was rehomogenized in fresh Krebs-Hepes buffer and recentrifuged at 48,000 g for 15 minutes at 4° C. The final pellet was resuspended in the original volume of ice-cold Krebs-Hepes buffer. This yielded a final tissue concentration of 1.2 to 1.6 mg/ml with the addition of 100 μl to the assay.
In conducting the assay, the following volumes were utilized:
Sample tubes were kept on ice for additions, then vortexed and incubated with continuous shaking for 30 minutes at 37° C. At the end of the incubation period, the incubate is diluted with 5 ml of ice-cold Krebs-Hepes buffer and immediately vacuum filtered through Whatman GF/B filters, followed by two 5 ml washes with ice-cold Krebes-Hepes buffer. The filters are dried and counted in 10 ml of liquid scintillation cocktail. […] IC50 values were derived from computer-derived log-probit analysis.

5-HT3 = test: 5 HT3 antagonist effects in the Bezold-Jarisch assay (reflex bradycardia, anesthetized Long-Evans rat); type: in vivo; settings: ip, mean ± SEM, 2-3 rats/dose
Source text: Measurement of 5 HT3 Antagonist Effects in the Bezold-Jarisch Assay
This assay evaluates the effect of these compounds as 5-HT3 antagonists. They were examined in this assay on the coronary chemoreflex (Bezold-Jarisch) initiated by […] in vivo and characterized by leading inhibition of sympathetic outflow and increased activity of the cardiac vagus, leading to profound bradycardia and hypotension. The values obtained allow for continuous monitoring of arterial pressure and heart rate responses by these compounds over an extended period of time to determine their effecicy for 5 HT3 antagonism.
The catheters were prepared from Tygon tubing (45 cm length, […], ID) bonded to Teflon tubing (0.38 mm, ID). The mechanical bonding was achieved by insertion of the Teflon tubing (5 mm) into the dilated (ethylene dichloride, 3-4 min.) tip of the Tygon tubing. The junction was then sealed with vinyl glue, the catheters were soaked in cold sterilization solution (Amerse instrument germicide) and flushed thoroughly with saline prior to implantation.
Long Evans rats were anesthetized with sodium pentobarbital (50 mg/kg, ip). […] The catheters were then sutured to the underlying muscle and the free ends were passed subcutaneously and exteriorized through an incision on the top of the skull. The catheters were then secured to the skin with sutures, nitrofurazone powder was dusted over the area of the incision and the incision was closed using 3-O silk sutures. The catheters were flushed with saline and sealed with metal obturators. Patentcy of the two catheters was maintained by daily flushing with hepranized saline (0.2 ml of 100 U/ml). The rats were given 48 hours recovery prior to obtaining cardiovascular data.
In the anesthetized rat model the catheters were not exteriorized, data was collected acutely under the influence of general anesthesia.
The baseline data Arterial Blood Pressure (mm Hg, systolic/diastolic) and Heart Rate (beats/min) were recorded and the rats were injected with 5-HT (3-7.5 ug/kg, iv). The individual response to the 5-HT intervention was determined and the compound was then administered singlely or in an ascending dose range. The rats were challenged with 5-HT again at intervals postdosing and the peak response was recorded.

Row | Structure (SMILES) | IC50 (5-HT3 Receptor) [nM] | % Inhibition of Bezold-Jarisch Reflex (5-HT3; 0.03 mg/kg) [%] | % Inhibition of Bezold-Jarisch Reflex (5-HT3; 0.05 mg/kg) [%] | % Inhibition of Bezold-Jarisch Reflex (5-HT3; 0.10 mg/kg) [%] | % Inhibition of Bezold-Jarisch Reflex (5-HT3; 3.0 mg/kg) [%] | % Inhibition of Bezold-Jarisch Reflex (5-HT3; 10.0 mg/kg) [%] | % Inhibition of Bezold-Jarisch Reflex (5-HT3; 1.0 mg/kg) [%]
1 | OCCN1CCN(c2onc3c2CCc2ccccc2-3)CC1 [Ex. 3, 3-(4-(2-Hydroxyethyl)-1-piperazinyl)-4,5-dihydronaphth[1,2-c]isoxazole] | 868 | – | – | – | – | – | –
2 | c1ccc2c(c1)CCc1c-2noc1N1CCCNCC1 [Ex. 4, 3-(1-Homopiperazinyl)-4,5-dihydronaphth[1,2-c]isoxazole] | 83 | 58.6 ± 16.4 | 83.3 ± 8.2 | 93.0 ± 1.0 | – | – | –
3 | Cc1nccn1CC1CCc2c(c3ccccc3n2C)C1=O (stereo not shown) [Ondansetron, reference compound] | – | – | – | – | 57.3 ± 9.7 | 94.6 ± 2.7 | –
4 | c1ccc2c(c1)CCc1c-2noc1N1CCNCC1 [Ex. 5, 3-(1-Piperazinyl)-4,5-dihydronaphth[1,2-c]isoxazole] | 56 | – | – | – | 89.3 ± 2.9 | – | 55.6 ± 9.7
